Experimental data: patent US20240124442A1, “TRICYCLIC-AMIDO-BICYCLIC PRMT5 INHIBITORS” (AMGEN INC., priority 2021, published 2024)
pIC50: −log10 of the molar value.

Columns and labels:
HCT116 MTAP null cells = assay: HCT116 MTAP null cell line proliferation / cell viability (CellTiter-Glo, 6 days); assay type: cell-based; conditions: 144 h; HCT116 MTAP null cells, 6 days treatment, CellTiter-Glo cell viability; read-out: HCT-116 MTAP null IC50
Summary of the method: (§1)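 Anti-proliferative IC50s were derived from CellTiter-Glo signal in HCT116 parent and MTAP-null cells after six days on compound. Serial dilutions reached top concentrations of 1, 10 or 50 μM, with DMSO-only wells as control.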

HCT116 WT cells = assay: HCT116 WT (parent) cell line proliferation / cell viability (CellTiter-Glo, 6 days); assay type: cell-based; conditions: Homo sapiens, HCT-116, 144 h, 6 days treatment
Summary of the method: as §1

| Compound | pIC50 (HCT116 MTAP null cells) | pIC50 (HCT116 WT cells) |
| --- | --- | --- |
| CN(C(=O)c1cc2c(cc1F)nc(N)c1cnn(C)c12)[C@H]1COc2cc(C(F)(F)F)ccc21 (single isomer, unassigned) [Example 572] | 6.12 | 4.95 |
| CN(C(=O)c1cc2c(cc1F)nc(N)c1cnn(C)c12)[C@H]1COc2cc(C(F)(F)F)ncc21 (single isomer, unassigned) [Example 574] | 6.38 | 4.40 |
| CN(C(=O)c1ccc2nc(N)c3c(cnn3C)c2c1)[C@@H]1COc2cc(C(F)(F)F)ccc21 (single isomer, unassigned) [Example 575] | 6.75 | 5.12 |
| CN(C(=O)c1ccc2nc(N)c3c(cnn3C)c2c1)[C@H]1COc2cc(C(F)(F)F)ccc21 (single isomer, unassigned) [Example 576] | 5.31 | 4.88 |
| CN(C(=O)c1cc2c(cc1F)nc(N)c1c2cnn1C)[C@@H]1COc2cc(OC(F)F)ccc21 (single isomer, unassigned) [Example 577] | 6.88 | 4.79 |
| CN(C(=O)c1ccc2nc(N)c3c(c2c1)COC3)[C@@H]1CCOc2cc(C(F)(F)F)ccc21 (single isomer, unassigned) [Example 578] | 6.65 | 5.23 |
| CN(C(=O)c1ccc2nc(N)c3c(c2c1)COC3)[C@H]1CCOc2cc(C(F)(F)F)ccc21 (single isomer, unassigned) [Example 579] | 5.63 | 5.35 |
| CCN(C(=O)c1ccc2nc(N)c3c(c2c1)COC3)[C@H]1COCc2cc(Br)ccc21 (single isomer, unassigned) [Example 581] | 6.10 | 4.75 |
| CN(C(=O)c1cc2c3c(c(N)nc2cn1)COC3)[C@@H]1COCc2ccc(C(F)(F)F)cc21 (single isomer, unassigned) [Example 583] | 6.39 | 5.05 |
| CN(C(=O)c1cc2c3c(c(N)nc2cn1)COC3)[C@H]1COCc2ccc(C(F)(F)F)cc21 (single isomer, unassigned) [Example 584] | 5.16 | 4.30 |
| CN(C(=O)c1cc2c3c(c(N)nc2cn1)COC3)[C@@H]1CCOc2cc(C(F)(F)F)ccc21 (single isomer, unassigned) [Example 585] | 6.59 | 4.90 |
| CN(C(=O)c1cc2c3c(c(N)nc2cn1)COC3)[C@H]1CCOc2cc(C(F)(F)F)ccc21 (single isomer, unassigned) [Example 586] | 5.52 | 5.00 |
| CCN(C(=O)c1cc2c3c(c(N)nc2cn1)COC3)[C@H]1COCc2cc(Br)ccc21 (single isomer, unassigned) [Example 588] | 5.70 | 5.00 |
| CN(C(=O)c1cnc2nc(N)c3c(c2c1)COC3)[C@H]1COCc2cc(Br)ccc21 (single isomer, unassigned) [Example 589] | 5.10 | 4.46 |

Next, values leading:

| pIC50 (HCT116 MTAP null cells) | pIC50 (HCT116 WT cells) | Compound |
| --- | --- | --- |
| 8.00 | 6.94 | CN(C(=O)c1cc2c(cc1F)nc(N)c1cnn(C)c12)[C@@H]1COc2cc(C(F)(F)F)ccc21 (single isomer, unassigned) [Example 571] |
| 7.92 | 6.16 | CN(C(=O)c1cc2c(cc1F)nc(N)c1cnn(C)c12)[C@@H]1COc2cc(C(F)(F)F)ncc21 (single isomer, unassigned) [Example 573] |
| 7.72 | 6.01 | CCN(C(=O)c1ccc2nc(N)c3c(c2c1)COC3)[C@@H]1COCc2cc(Br)ccc21 (single isomer, unassigned) [Example 580] |
| 7.12 | 5.25 | COc1ccc2c(c1)COC[C@H]2N(C)C(=O)c1cc2c3c(c(N)nc2cn1)COC3 (single isomer, unassigned) [Example 582] |
| 7.68 | 6.24 | CCN(C(=O)c1cc2c3c(c(N)nc2cn1)COC3)[C@@H]1COCc2cc(Br)ccc21 (single isomer, unassigned) [Example 587] |
| 6.89 | 5.35 | CN(C(=O)c1cnc2nc(N)c3c(c2c1)COC3)[C@@H]1COCc2cc(Br)ccc21 (single isomer, unassigned) [Example 590] |
